Data from patent US10196403B2, “Compounds and compositions and uses thereof” (Sunovion Pharmaceuticals Inc., priority 2016, dated 2019).

Test system: mice
Assay: Neuropharmacological Assay (SmartCube)
Format: in vivo
Conditions: for minimal effective dose: Mus musculus, read-out: POTENCY (minimal effective dose, MED); for AD: ADHD (SmartCube probability) / AG: analgesic (SmartCube probability) / AX: anxiolytic (SmartCube probability) / CE: cognitive enhancer (SmartCube probability) / DP: anti-depressant (SmartCube probability) / MS: mood stabilizer (SmartCube probability) / PS: anti-psychotic (SmartCube probability) / SD: sedative hypnotic (SmartCube probability) / UN: uncharacterized CNS activity (SmartCube probability): mice, i.p. 15 min before test, most efficacious dose(s) of 3 doses
From the text: Neuropharmacological Assay (SmartCube™)
Neurosci. 2011 Sep. 9; 5:103 (doi: 10.3389/fnins.2011.00103) (“Roberds”). As reported in Roberds, because psychiatric diseases generally result from disorders of cell-cell communication, circuitry, intact systems are useful in detecting improvement in disease-relevant endpoints. These endpoints are typically behavioral in nature, often requiring human observation and interpretation. To facilitate testing of multiple compounds for behavioral effects relevant to psychiatric disease, PsychoGenics, Inc. (Tarrytown, N.Y., “PGI”) developed SmartCube™, an automated system in which behaviors of compound-treated mice are captured by digital video and analyzed with computer algorithms. (D. Brunner et al., Drug Discov. Today 2002, 7:S107-S112). PGI Analytical Systems uses data from SmartCube™ to compare the behavioral signature of a test compound to a database of behavioral signatures obtained using a large set of diverse reference compounds. (The composition of the database as well as validation of the method is further described in Roberds). In this way, the neuropharmacological effects of a test compound can be predicted by similarity to major classes of compounds, such as antipsychotics, anxiolytics and antidepressants.
The SmartCube™ system produces an activity signature indicating the probability that the activity of the test compound at the administered dose matches a given class of neuropharmacological agents. (See, e.g., Roberds, FIGS. 2 and 3). The test compound is simultaneously compared against multiple classes of agents; thus, a separate probability is generated for each behavioral effect measured (e.g., anxiolytic activity, analgesic activity, etc.). In the table below, these probabilities are reported for each behavioral effect measured as follows:
where LOQ is the limit of quantification.
Provided compounds were dissolved in a mixture of Pharmasolve™ (N-methyl-2-pyrrolidone), polyethylene glycol and propylene glycol, and were injected i.p. 15 min. before the behavioral test. For each compound, injections were administered at 3 different doses. For each behavioral effect measured, results for the most efficacious dose(s) are presented. In the table below, DP: anti-depressant; AX: anxiolytic; SD: sedative hypnotic; PS: anti-psychotic; MS: mood stabilizer; AD: ADHD; CE: cognitive enhancer; AG: analgesic; UN: uncharacterized CNS activity.
The potency of many of the compounds in the table was also determined in the SmartCube™ system. Test compounds were routinely examined at dose levels of 0.3, 1, 3 10 and 30 mg per kg (mpk), although the dose range was increased or decreased if necessary to obtain a full dose response curve. A compound's minimal effective dose (MED) is a measure of the compounds potency. The MED was defined as the dose (in mpk) having 50% or more total activity in SmartCube.

[1] = MED = dose having 50% or more total activity in SmartCube

Compound | minimal effective dose [1] | AD: ADHD (SmartCube probability) | AG: analgesic (SmartCube probability) | AX: anxiolytic (SmartCube probability) | CE: cognitive enhancer (SmartCube probability) | DP: anti-depressant (SmartCube probability) | MS: mood stabilizer (SmartCube probability) | PS: anti-psychotic (SmartCube probability) | SD: sedative hypnotic (SmartCube probability) | UN: uncharacterized CNS activity (SmartCube probability) | POTENCY (minimal effective dose, MED) [1]
CNC[C@H]1OCCc2c(C)cccc21 [Example 38, (S)-N-methyl-1-(5-methylisochroman-1-yl)methanamine] | < 3 mg/kg | + (LOQ≤ + <5%) | ++ (5%≤ ++ <25%) | ++ (5%≤ ++ <25%) | + (LOQ≤ + <5%) | ++ (5%≤ ++ <25%) | + (LOQ≤ + <5%) | ++ (5%≤ ++ <25%) | ++ (5%≤ ++ <25%) | +++ (25%≤ +++ <50%) | 
CNC[C@@H]1OCCc2c(F)ccc(F)c21 [Example 31, (R)-1-(5,8-difluoroisochroman-1-yl)-N-methylmethanamine] | < 3 mg/kg | + (LOQ≤ + <5%) | ++ (5%≤ ++ <25%) | ++ (5%≤ ++ <25%) | ++ (5%≤ ++ <25%) | ++++ (50%≤ ++++) | + (LOQ≤ + <5%) | + (LOQ≤ + <5%) | + (LOQ≤ + <5%) | + (LOQ≤ + <5%) | 
Cc1cccc2c1CCO[C@H]2CN [Example 73, (R)-(5-methylisochroman-1-yl)methanamine] | < 3 mg/kg | + (LOQ≤ + <5%) | + (LOQ≤ + <5%) | ++ (5%≤ ++ <25%) | ++ (5%≤ ++ <25%) | +++ (25%≤ +++ <50%) | + (LOQ≤ + <5%) | + (LOQ≤ + <5%) | ++ (5%≤ ++ <25%) | ++++ (50%≤ ++++) | 
CC(N)C1OCCc2ccc3c(c21)OCO3 (stereo not drawn) [Example 55] |  | + (LOQ≤ + <5%) | ++ (5%≤ ++ <25%) | ++ (5%≤ ++ <25%) | + (LOQ≤ + <5%) | ++ (5%≤ ++ <25%) | + (LOQ≤ + <5%) | + (LOQ≤ + <5%) | + (LOQ≤ + <5%) | ++++ (50%≤ ++++) | C (>10 to ≤30 mpk)
CNC[C@H]1OCCc2c(F)cccc21 [Example 18, (S)-1-(5-fluoroisochroman-1-yl)-N-methylmethanamine] | 10 to 30 mg/kg | + (LOQ≤ + <5%) | ++ (5%≤ ++ <25%) | ++ (5%≤ ++ <25%) | ++ (5%≤ ++ <25%) | ++ (5%≤ ++ <25%) | + (LOQ≤ + <5%) | + (LOQ≤ + <5%) | + (LOQ≤ + <5%) | ++ (5%≤ ++ <25%) | 
NC[C@H]1OCCc2ccc3c(c21)OCO3 [Example 7, (S)-(6,9-dihydro-7H-[1,3]dioxolo[4,5-h]isochromen-9-yl)methanamine] | < 3 mg/kg | ++ (5%≤ ++ <25%) | +++ (25%≤ +++ <50%) | +++ (25%≤ +++ <50%) | ++ (5%≤ ++ <25%) | ++ (5%≤ ++ <25%) | ++ (5%≤ ++ <25%) | ++ (5%≤ ++ <25%) | + (LOQ≤ + <5%) | ++ (5%≤ ++ <25%) | 
CNC[C@H]1OCc2c(Cl)cccc21 [Example 92, (S)-1-(4-chloro-1,3-dihydroisobenzofuran-1-yl)-N-methylmethanamine] | 10 to 30 mg/kg | + (LOQ≤ + <5%) | ++ (5%≤ ++ <25%) | ++ (5%≤ ++ <25%) | ++ (5%≤ ++ <25%) | ++ (5%≤ ++ <25%) | + (LOQ≤ + <5%) | + (LOQ≤ + <5%) | ++ (5%≤ ++ <25%) | +++ (25%≤ +++ <50%) | 
CNC[C@H]1OCCc2c(F)ccc(F)c21 [Example 30, (S)-1-(5,8-difluoroisochroman-1-yl)-N-methylmethanamine] | 3 to 10 mg/kg | + (LOQ≤ + <5%) | ++ (5%≤ ++ <25%) | ++ (5%≤ ++ <25%) | ++ (5%≤ ++ <25%) | ++ (5%≤ ++ <25%) | + (LOQ≤ + <5%) | ++ (5%≤ ++ <25%) | ++ (5%≤ ++ <25%) | +++ (25%≤ +++ <50%) | 
CNC[C@@H]1OCCc2cc3c(cc21)OCO3 (stereo in doubt) [Example 6, (R)-1-(7,8-dihydro-5H-[1,3]dioxolo[4,5-g]isochromen-5-yl)-N-methylmethanamine] | 10 to 30 mg/kg | + (LOQ≤ + <5%) | + (LOQ≤ + <5%) | ++ (5%≤ ++ <25%) | + (LOQ≤ + <5%) | + (LOQ≤ + <5%) | ++ (5%≤ ++ <25%) | ++ (5%≤ ++ <25%) | + (LOQ≤ + <5%) | ++++ (50%≤ ++++) | 
CNC[C@H]1OCCc2cccc(C#N)c21 [Example 44, (S)-1-((methylamino)methyl)isochromane-8-carbonitrile] | 3 to 10 mg/kg | + (LOQ≤ + <5%) | ++ (5%≤ ++ <25%) | ++ (5%≤ ++ <25%) | ++ (5%≤ ++ <25%) | + (LOQ≤ + <5%) | + (LOQ≤ + <5%) | ++ (5%≤ ++ <25%) | + (LOQ≤ + <5%) | +++ (25%≤ +++ <50%) | 
CNC[C@@H]1OCc2c(Cl)cccc21 [Example 93, (R)-1-(4-chloro-1,3-dihydroisobenzofuran-1-yl)-N-methyl-methanamine] | < 3 mg/kg | +++ (25%≤ +++ <50%) | ++ (5%≤ ++ <25%) | +++ (25%≤ +++ <50%) | ++ (5%≤ ++ <25%) | ++ (5%≤ ++ <25%) | + (LOQ≤ + <5%) | + (LOQ≤ + <5%) | ++ (5%≤ ++ <25%) | ++++ (50%≤ ++++) | 
CNC[C@H]1OC[C@@H](F)c2ccccc21 [Example 21, 1-((1S,4S)-4-fluoroisochroman-1-yl)-N-methylmethanamine] | 3 to 10 mg/kg | + (LOQ≤ + <5%) | +++ (25%≤ +++ <50%) | ++ (5%≤ ++ <25%) | ++ (5%≤ ++ <25%) | ++ (5%≤ ++ <25%) | + (LOQ≤ + <5%) | ++ (5%≤ ++ <25%) | ++ (5%≤ ++ <25%) | +++ (25%≤ +++ <50%) | 
